Assays:
elevated IOP rat eye = assay: Morrison's rat model of glaucoma (RGC counts, PERG); type: in vivo, Brown Norway rats; conditions: topical eye drops 100 μg per dose, five days a week, four weeks
Excerpt: Adult male and female retired breeder Brown Norway rats (approximate age groups of 8 to 11 months) were obtained from Envigo (Indianapolis, IN). Baseline IOP measurements and pattern electroretinogram (PERG) amplitudes were collected prior to the surgery for elevation of IOP (to ensure that the IOP and PERG amplitudes were in the expected range of values). IOP was elevated in one eye (left eye) of the rats, while the corresponding right eyes served as contralateral controls. The Morrison method to elevate IOP in rats was carried out by injection of 50 μL of hypertonic saline through the episcleral veins to sclerose the trabecular meshwork. IOP was measured twice a week throughout the entire duration of the experiment. […] After detecting an elevation of IOP for two consecutive days, topical administration of eye drops ([…] (100 μg,) per dose of the tested compounds in the IOP elevated eye) was commenced and carried out for five days a week for a total of four weeks. In the 4th week of treatment, PERG analysis was carried out and rats were sacrificed by an overdose of pentobarbital (fatal-Plus). Aqueous humor was collected from the rat eyes, frozen and shipped for analysis. Retinal flat mounts were prepared, immunostained with the RGC marker, Brn3a antibody and surviving RG-Cs were counted in two eccentricities (central and peripheral).
For this study, the Morrison's model was used to induce ocular hypertension in adult male retired breeder Brown Norway rats as previously described by. Morrison et al., (Morrison J C, Moore C G, Deppmeier L M, Gold B G, Meshul C K, Johnson E C. A rat model of chronic pressure-induced optic nerve damage. Exp Eye Res. 1997;64(1):85-96).
The immunostained retinal flat mounts were obtained to measure the retinal ganglion cell (RGC) counts. To obtain immunostained retinal flat mounts, the animals were euthanized after the treatments and then their eyes were enucleated. The eye cups were fixed overnight at 4° C. in 4% paraformaldehyde (PFA) and retinal flat mounts were prepared for collecting images. The retinal ganglion cell (RGC) counting was conducted using the images of immunostained retinal flat mounts. The images were uploaded to ImageJ, a photo editor designed for biology research (Rasband, 1997-2018) and the labeled retinal ganglion cells were counted manually in two eccentricities (central and peripheral).
Pattern ERG (PERG) was used to assess the RGC function. […] Briefly, PERG signals were acquired from a DTL-plus electrode placed on the lower part of the corneal surface and the PERG waves were analyzed using the EMWIN software (LKC). The difference between the amplitude of the major positive (P1) and negative (N2) waves were calculated to decipher the PERG amplitude.

[1] = test system: laser-induced glaucoma eye; assay: Laser-induced glaucoma non-human primate, intraocular pressure after topical administration; type: in vivo, rhesus macaque, Macaca Mulatta; conditions: 50 μL eyedrop 2 mg/mL
Description: Non-human primates (rhesus macaque, Macaca Mulatta) were obtained for this study. One eye of each animal underwent induction of elevation of intraocular pressure (TOP) by repeated laser photocoagulation of the trabecular meshwork. Imaging sessions were repeated to monitor the optic nerve head (ONH) and retinal structural changes. A single dose of 0.5% Timolol or a single dose of 2 mg/mL Edonentan was topically administered to three non-human primates that have laser-induced glaucoma in their right eyes (OD) with 1-week wash-out in a randomized order.

ETA receptor = molecular target: T1, ETA receptor (Homo sapiens, UniProt P25101); assay: Functional potency for ETA receptor; type: biochemical
T1 sequence (P25101 21-427): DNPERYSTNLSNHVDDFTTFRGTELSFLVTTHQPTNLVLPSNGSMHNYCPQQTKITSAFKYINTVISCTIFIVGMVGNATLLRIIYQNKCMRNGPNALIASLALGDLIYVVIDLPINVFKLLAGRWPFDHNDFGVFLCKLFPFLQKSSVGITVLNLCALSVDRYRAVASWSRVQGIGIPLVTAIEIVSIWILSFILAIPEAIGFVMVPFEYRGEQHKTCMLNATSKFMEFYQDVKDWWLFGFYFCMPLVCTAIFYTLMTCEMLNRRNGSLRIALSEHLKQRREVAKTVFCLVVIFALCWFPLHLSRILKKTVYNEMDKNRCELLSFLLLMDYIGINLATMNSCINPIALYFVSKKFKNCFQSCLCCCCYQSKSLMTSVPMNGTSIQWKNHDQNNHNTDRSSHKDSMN
Excerpt: (§1) In the above table, the physicochemical data, e.g., solubility, were obtained following standard protocols known in the field (see, e.g., Reis et al., Mini Rev Med Chem., 2010, 10(11):1071-6; Avdeef et al., Expert Opin Drug Metab Toxicol., 2005, 1(2):325-42; Bharate et al., Comb Chem High Throughput Screen., 2016, 19(6):461-9; and Jain et al., J Pharm Biomed Anal., 2013, 86:11-35.); and the biochemical data, i.e., potency for ETA/ETB, were obtained following the protocols known in the field (see, e.g., Kirkby et al., Br J Pharmacol., 2008, 153(6):1105-19; and Maguire et al., Br J Pharmacol., 2014, 171(24):5555-72.).

Permeability (PAMPA) = type: in vitro ADME
Excerpt: as §1

Functional potency for ETA and ETB receptors (rating) (ETA receptor): High potency | Specificity ETA vs ETB (rating) (ETA receptor): High specificity | Permeability (rating) (Permeability (PAMPA)): Mid-High
Structure (SMILES): Cc1onc(NS(=O)(=O)c2ccccc2-c2ccc(-c3ncco3)cc2CN(C)C(=O)CC(C)(C)C)c1C [Edonentan, N-[[2′-[[(4,5-dimethyl-3-isoxazolyl)amino]sulfonyl]-4-(2-oxazolyl)[1,1′-biphenyl]-2-yl]methyl]-N,3,3-trimethylbutanamide]
RGC function (PERG) (elevated IOP rat eye): maintained RGC function | RGC loss (RGC counts, retinal flat mounts) (elevated IOP rat eye): prevented RGC loss | IOP reduction from pre-dose to post-dose ([1]; Non-human Primate 1, contralateral healthy eye, 120 minutes): about 10% | IOP reduction from pre-dose to post-dose ([1]; Non-human Primate 1, experimental glaucoma eye, 120 minutes): about 60% | IOP reduction from pre-dose to post-dose ([1]; Non-human Primate 2, contralateral healthy eye, 15 minutes): about 20% | IOP reduction from pre-dose to post-dose ([1]; Non-human Primate 2, contralateral healthy eye, 120 minutes): about 0% | IOP reduction from pre-dose to post-dose ([1]; Non-human Primate 2, experimental glaucoma eye, 15 minutes): about 50% | IOP reduction from pre-dose to post-dose ([1]; Non-human Primate 2, experimental glaucoma eye, 120 minutes): about 30% | IOP reduction from pre-dose to post-dose ([1]; Non-human Primate 3, contralateral healthy eye, 15 minutes): about 10% | IOP reduction from pre-dose to post-dose ([1]; Non-human Primate 3, contralateral healthy eye, 120 minutes): about 40% | IOP reduction from pre-dose to post-dose ([1]; Non-human Primate 3, experimental glaucoma eye, 15 minutes): about 40% | IOP reduction from pre-dose to post-dose ([1]; Non-human Primate 3, experimental glaucoma eye, 120 minutes): about 40%

Source: patent US20240058265A1, “TREATMENT OF OCULAR DISEASES USING ENDOTHELIN RECEPTOR ANTAGONISTS” (Perfuse Therapeutics, Inc., priority 2021, published 2024)
